This note sets out measurements from ChEMBL document CHEMBL1131731, “Synthesis and evaluation of hapalosin and analogs as MDR-reversing agents” (Bioorg Med Chem Lett, 1999).

A value given as a limit tells only on which side of the number the result lay.

Chain of ATP-dependent translocase ABCB1 (P08183 whole entry): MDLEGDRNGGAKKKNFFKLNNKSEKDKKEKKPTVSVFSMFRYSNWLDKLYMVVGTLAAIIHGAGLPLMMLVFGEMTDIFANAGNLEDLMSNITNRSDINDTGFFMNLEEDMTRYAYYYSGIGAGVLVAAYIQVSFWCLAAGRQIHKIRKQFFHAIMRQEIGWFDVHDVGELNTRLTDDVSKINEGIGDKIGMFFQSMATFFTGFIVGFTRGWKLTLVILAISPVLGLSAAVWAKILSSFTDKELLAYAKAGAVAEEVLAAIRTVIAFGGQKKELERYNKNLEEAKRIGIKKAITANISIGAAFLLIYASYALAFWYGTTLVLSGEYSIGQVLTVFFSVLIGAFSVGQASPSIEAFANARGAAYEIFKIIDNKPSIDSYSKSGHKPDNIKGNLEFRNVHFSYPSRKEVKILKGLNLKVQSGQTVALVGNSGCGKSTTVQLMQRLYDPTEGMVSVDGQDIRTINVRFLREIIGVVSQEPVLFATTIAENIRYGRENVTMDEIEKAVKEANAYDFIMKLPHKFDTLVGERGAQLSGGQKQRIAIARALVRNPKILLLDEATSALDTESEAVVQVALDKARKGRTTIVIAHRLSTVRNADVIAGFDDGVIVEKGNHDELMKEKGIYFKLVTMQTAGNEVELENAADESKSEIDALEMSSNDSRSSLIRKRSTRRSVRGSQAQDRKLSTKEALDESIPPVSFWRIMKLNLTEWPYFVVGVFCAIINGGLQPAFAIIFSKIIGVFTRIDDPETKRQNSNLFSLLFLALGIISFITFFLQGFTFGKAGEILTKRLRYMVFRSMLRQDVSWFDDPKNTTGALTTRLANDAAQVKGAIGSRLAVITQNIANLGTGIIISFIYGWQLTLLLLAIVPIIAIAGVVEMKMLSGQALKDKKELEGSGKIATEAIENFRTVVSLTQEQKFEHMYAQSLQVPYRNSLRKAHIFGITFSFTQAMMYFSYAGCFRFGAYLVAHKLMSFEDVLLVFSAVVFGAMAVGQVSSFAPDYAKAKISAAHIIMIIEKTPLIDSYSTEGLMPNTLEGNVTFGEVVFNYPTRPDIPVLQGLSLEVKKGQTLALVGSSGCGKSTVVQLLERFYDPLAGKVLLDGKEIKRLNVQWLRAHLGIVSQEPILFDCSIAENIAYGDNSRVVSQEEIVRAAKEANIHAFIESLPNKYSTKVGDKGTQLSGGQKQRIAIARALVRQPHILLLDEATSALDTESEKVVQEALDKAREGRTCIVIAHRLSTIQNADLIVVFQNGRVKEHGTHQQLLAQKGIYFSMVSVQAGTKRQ

The first series deals with ATP-dependent translocase ABCB1 (P-glycoprotein) (Homo sapiens, UniProt P08183). Description: (§1) Ratio of IC50 of cytotoxicity to the IC50 of MDR- reversal for P388/VMDRC.04 cells. The following applies: mouse, P388/VMDRC.04 cells. It is filed as functional, cell-based.
Chain of ATP-dependent translocase ABCB1 (P-glycoprotein) (P08183 whole entry): as above
With `CCCCCCC[C@H]1OC(=O)C[C@H](O)[C@H](Cc2ccccc2)N(C)C(=O)[C@H](C(C)C)OC(=O)[C@H]1C` [listing 1 of 2 here], the selectivity ratio was 7.4.

As for `COCO[C@H]1CC(=O)O[C@H](C)[C@H](C)C(=O)OCC(=O)N(C)[C@H]1Cc1ccccc1`, the selectivity ratio is > 2.3.

Regarding `COCO[C@H](CC(=O)OC)[C@H](Cc1ccccc1)N(C)C(=O)OCc1ccccc1`, the selectivity ratio came to 5.7.

As to `CCCCCCC[C@H]1OC(=O)C[C@@H](O)[C@H](Cc2ccccc2)N(C)C(=O)[C@H](C)OC(=O)[C@H]1C`, the selectivity ratio was found to be 4.3.

With `CCCCCCC[C@@H](O)[C@H](C)C(=O)O[C@H](C(=O)OC)C(C)C`, the selectivity ratio is > 5.2.

Regarding `CCCCCCC[C@H]1OC(=O)C[C@@H](O)[C@H](Cc2ccccc2)N(C)C(=O)[C@H](C(C)C)OC(=O)[C@H]1C` [HAPALOSIN], the selectivity ratio came to 3.

Consider `CCCC[C@H]1OC(=O)C[C@H](O)[C@H](Cc2ccccc2)N(C)C(=O)COC(=O)[C@H]1C`, for which the selectivity ratio is > 4.4.

Regarding `CCCCCCC[C@H]1OC(=O)CC[C@H](Cc2ccccc2)N(C)C(=O)[C@H](C(C)C)OC(=O)[C@H]1C`, the selectivity ratio is 5.6.

In the case of `CCCCCCC[C@H]1OC(=O)C[C@H](OCOC)[C@H](Cc2ccccc2)N(C)C(=O)C(C)(C)OC(=O)[C@H]1C`, the selectivity ratio came to 3.5.

Regarding `CCCCCCC[C@H]1OC(=O)C[C@H](OCOC)[C@H](Cc2ccccc2)N(C)C(=O)[C@H](C(C)C)OC(=O)[C@H]1C` (stereo in doubt; 14), the selectivity ratio was determined as 7.5.

As for `CC(C)[C@@H]1OC(=O)[C@@H](C)[C@@H](C)OC(=O)C[C@@H](O)[C@H](Cc2ccccc2)N(C)C1=O`, the selectivity ratio is > 9.

In the case of `CCCCCCC[C@H]1OC(=O)C[C@H](O)[C@H](Cc2ccccc2)N(C)C(=O)[C@H](C(C)C)OC(=O)[C@H]1C` [listing 2 of 2 here], the selectivity ratio was 5.4.

As to `COC(=O)C[C@@H](O)[C@H](Cc1ccccc1)N(C)C(=O)OCc1ccccc1`, the selectivity ratio stood at 5.2.

With `CCCCCCC[C@@H]1CC(=O)O[C@@H](C(C)C)C(=O)N(C)[C@@H](Cc2ccccc2)[C@H](OCOC)CC(=O)O1`, the selectivity ratio was found to be 5.7.

Regarding `CCCCCCC[C@H]1OC(=O)C[C@@H](OCOC)[C@H](Cc2ccccc2)N(C)C(=O)[C@H](C(C)C)OC(=O)[C@H]1C`, the selectivity ratio came out at 5.7.

For the molecule `CCCCCCC[C@H]1OC(=O)C[C@@H](OCOC)[C@H](Cc2ccccc2)N(C)C(=O)COC(=O)[C@H]1C`, the selectivity ratio was found to be 6.5.

`CCCC[C@H]1OC(=O)C[C@H](OCOC)[C@H](Cc2ccccc2)N(C)C(=O)COC(=O)[C@H]1C`: the selectivity ratio is > 8.5.

Take `CC(C)[C@@H]1OC(=O)[C@@H](C)COC(=O)C[C@@H](O)[C@H](Cc2ccccc2)N(C)C1=O`: the selectivity ratio is > 7.5.

`COCO[C@@H]1CC(=O)OC[C@H](C)C(=O)O[C@@H](C(C)C)C(=O)N(C)[C@H]1Cc1ccccc1`: the selectivity ratio was > 15.9.

As for `CCCCCCC[C@H]1OC(=O)C[C@H](O)[C@H](Cc2ccccc2)N(C)C(=O)C(C)(C)OC(=O)[C@H]1C`, the selectivity ratio is 6.6.

`CCCCCCC[C@H]1OC(=O)C[C@@H](OCOC)[C@H](Cc2ccccc2)N(C)C(=O)[C@H](C)OC(=O)[C@H]1C`: the selectivity ratio is 3.2.

Take `COCO[C@@H]1CC(=O)O[C@H](C)[C@H](C)C(=O)O[C@@H](C(C)C)C(=O)N(C)[C@H]1Cc1ccccc1`: the selectivity ratio was > 10.

For the molecule `CCCCCCC[C@H]1OC(=O)C[C@@H](O)[C@H](Cc2ccccc2)N(C)C(=O)COC(=O)[C@H]1C`, the selectivity ratio was determined as 3.8.

`CCCCCCC[C@@H]1CC(=O)O[C@@H](C(C)C)C(=O)N(C)[C@@H](Cc2ccccc2)[C@H](O)CC(=O)O1`: the selectivity ratio was 3.8.

Another series concerns the target ATP-dependent translocase ABCB1 (Homo sapiens, UniProt P08183). Described as §1. It is filed as functional, cell-based. The following applies: mouse.
`CCCCCCC[C@H]1OC(=O)C[C@H](OCOC)[C@H](Cc2ccccc2)N(C)C(=O)[C@H](C(C)C)OC(=O)[C@H]1C` (stereo in doubt; 22): the Ratio is 6.2.

Molecular target in the next series: not listed separately
Put plainly: Evaluated for cytotoxicity using P388/VMDRC.04 cells (a subline of P388 murine leukemia cells expressing human recombinant human P-glycoprotein) in the absence of 10 nM vincristine.
Settings: not given
A word on the IC50: it is the midpoint of a concentration-inhibition curve. With `CCCCCCC[C@H]1OC(=O)C[C@@H](OCOC)[C@H](Cc2ccccc2)N(C)C(=O)[C@H](C(C)C)OC(=O)[C@H]1C`, the IC50 amounted to 34.9 µM.

Take `CCCC[C@H]1OC(=O)C[C@H](OCOC)[C@H](Cc2ccccc2)N(C)C(=O)COC(=O)[C@H]1C`: the IC50 is > 100 µM.

For the molecule `CC(C)[C@@H]1OC(=O)[C@@H](C)COC(=O)C[C@@H](O)[C@H](Cc2ccccc2)N(C)C1=O`, the IC50 was > 100 µM.

In the case of `CCCCCCC[C@@H](O)[C@H](C)C(=O)OC`, the half-inhibitory concentration (IC50) was > 100 µM.
